The conditions of data set [1]: cited from earlier work.
Data set [2] addresses T1, recombinant NMDA receptors NR1/NR2A (HEK293 cells) (Homo sapiens, UniProt Q12879).
T1 construct: expressed in transfected cells
The data set can be described thus: Inhibition of NMDA evoked cytosolic calcium elevation in HEK293 cells transfected with NR1/NR2A. Format: cell-based. The settings on record: HEK293; read-out: NR1-3/NR2A % inhibition at 10 μM. The method, then:
Expression of Recombinant NMDA Receptors
(1997); Neurochemistry International, 43, 19-29. (2003)]. […] Compounds were tested for their inhibitory action on NMDA evoked cytosolic calcium elevations in fluorescent calcium measurements. Studies were performed 48-72 h after addition of the inducing agent. Ketamine (500 μM) was also present during the induction in order to prevent cytotoxicity.
Dose-response curves and IC50-values were calculated using data derived from at least three independent experiments. Inhibitory potency of a compound at a single concentration point was expressed as percent inhibition of the NMDA response. Sigmoidal concentration-inhibition curves were fit to the data and IC50 values were determined as the concentration that produces half of the maximal inhibition caused by the compound.

Data set [3] relates to NMRI mice. Put plainly: Mouse formalin test, second phase, oral administration. Type of data set: in vivo. The settings on record: 15 min before formalin, licking 20 to 25 min after injection. As for the experimental part:
Injection of diluted formalin into the hind paw of rats or mice is known to elicit a biphasic pain-related behaviour measured as time spent by licking/biting of the injured paw. The second phase is generally defined as pain related events detected in the 15-60 min. time interval after formalin injection, with peak activity at around 30 min. It is known that NMDA receptors are involved in the second phase of response to formalin injection and this behavioural response is sensitive to blockade of NMDA receptors [Dickenson, A. and Besson J.-M. (Editors): Chapter 1, pp. 6-7: Animal models of Analgesia; and Chapter 8, pp. 180-183. Mechanism of Central Hypersensitivity: Excitatory Amino Acid Mechanisms and Their Control—In Pharmacology of Pain. Springer-Verlag (Berlin) 1997.] Therefore, we used the second phase of formalin test to characterize the efficacy of compounds in vivo. Inhibition of the second phase of response is considered to indicate an analgesic effect against chemically-induced persistent pain [Hurker, S., et al.: Formalin Test in Mice, a Useful Technique for Evaluating Mild Analgesics, Journal of Neuroscience Methods, 14 (1985) 69-76.]
Male NMRI […] (20-25 g) were used. Prior to the experiment any solid food was withdrawn for approx. 16 hours but the animals had free access to 20% glucose solution. The animals were allowed 1 hour acclimatization period in a glass cylinder (cc. 15 cm in diameter), then moved to an identical cylinder with a mirror placed behind to facilitate observation. The test substances were suspended in 5% tween-80 (10 ml per kg body weight). and administered orally by gavage 15 min before the formalin injection (20 μl of 1% formalin in 0.9& saline injected subcutaneously into the dorsal surface of the right hindpaw). The time spent by licking and biting of the injected paw was measured from 20 to 25 min. after the formalin injection.

Read-outs that look alike come from different tables or passages of the source.

These results are taken from patent US8008326B2, “4-benzyledene-piperidin derivatives” (Richter Gedeon Vegyeszeti Gyar Rt., priority 2004, dated 2011).

One may read the ED50 as the midpoint of the dose-response relation. A high value points to weaker potency.

T1 sequence (Q12879 23-1464, other chains not shown): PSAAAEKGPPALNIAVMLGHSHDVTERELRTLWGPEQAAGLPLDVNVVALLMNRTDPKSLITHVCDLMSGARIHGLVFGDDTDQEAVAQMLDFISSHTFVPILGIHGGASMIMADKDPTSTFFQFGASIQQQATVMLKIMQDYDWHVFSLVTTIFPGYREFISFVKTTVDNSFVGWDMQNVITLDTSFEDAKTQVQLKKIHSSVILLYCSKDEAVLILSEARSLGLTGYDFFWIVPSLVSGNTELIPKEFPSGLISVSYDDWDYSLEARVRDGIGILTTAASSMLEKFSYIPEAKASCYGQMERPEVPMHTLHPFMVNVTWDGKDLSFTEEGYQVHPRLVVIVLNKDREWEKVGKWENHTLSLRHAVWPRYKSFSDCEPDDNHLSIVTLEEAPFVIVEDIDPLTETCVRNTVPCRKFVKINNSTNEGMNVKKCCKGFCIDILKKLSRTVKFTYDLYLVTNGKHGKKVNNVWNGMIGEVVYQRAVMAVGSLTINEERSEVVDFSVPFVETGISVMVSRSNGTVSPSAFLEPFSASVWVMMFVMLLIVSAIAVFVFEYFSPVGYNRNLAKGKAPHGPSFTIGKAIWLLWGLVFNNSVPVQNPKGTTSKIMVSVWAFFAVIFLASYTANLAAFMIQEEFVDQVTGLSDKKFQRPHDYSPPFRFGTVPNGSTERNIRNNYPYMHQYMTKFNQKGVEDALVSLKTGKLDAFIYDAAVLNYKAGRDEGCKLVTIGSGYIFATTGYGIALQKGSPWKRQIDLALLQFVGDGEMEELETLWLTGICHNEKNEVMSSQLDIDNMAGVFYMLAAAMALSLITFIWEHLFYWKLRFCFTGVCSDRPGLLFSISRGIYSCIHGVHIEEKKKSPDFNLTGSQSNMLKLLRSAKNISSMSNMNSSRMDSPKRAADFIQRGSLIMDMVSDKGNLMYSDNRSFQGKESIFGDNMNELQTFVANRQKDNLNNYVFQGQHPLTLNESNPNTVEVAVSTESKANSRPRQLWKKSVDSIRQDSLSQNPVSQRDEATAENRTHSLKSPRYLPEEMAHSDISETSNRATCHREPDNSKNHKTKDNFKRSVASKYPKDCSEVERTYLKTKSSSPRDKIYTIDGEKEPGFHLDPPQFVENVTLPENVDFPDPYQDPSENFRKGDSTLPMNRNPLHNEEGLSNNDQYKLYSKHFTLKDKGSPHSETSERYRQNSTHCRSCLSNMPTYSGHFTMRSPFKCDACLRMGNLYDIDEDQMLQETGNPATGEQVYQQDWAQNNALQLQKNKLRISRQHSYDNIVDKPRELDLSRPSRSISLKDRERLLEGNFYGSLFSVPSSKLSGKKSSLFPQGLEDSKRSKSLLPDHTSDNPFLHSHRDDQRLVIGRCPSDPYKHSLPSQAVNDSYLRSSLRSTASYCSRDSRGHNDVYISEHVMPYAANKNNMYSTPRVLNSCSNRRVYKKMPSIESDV

Take `C[C@@H](CN1CCC(Cc2ccccc2)CC1)[C@@H](O)c1ccc(O)cc1` [Ro 25.6981, R—(R*,S*)-1-(4-hydroxyphenyl)-2-methyl-3-[4-(phenylmethyl)piperidine-1-yl]-1-propanol]: the “effect on locomotor activity” value in data set [1] (J. Pharmacol. Exp. Ther. 302 (2002), Behav. Pharmacol. 14 (2003)) is “increase locomotor activity”; in data set [1] (other group, Neuropharmacology 38 (1999)), “no such effect was observed”. Besides, the inhibition at 10 µM in data set [2] came to 1%. Also, in data set [3], the ED50 is over 20 mg/kg.
